The results in this text go back to ChEMBL document CHEMBL1133595, “Discovery of chiral N,N-disubstituted trifluoro-3-amino-2-propanols as potent inhibitors of cholesteryl ester transfer protein” (J Med Chem, 2000).

Molecules are shown by their SMILES.

By IC50 is commonly meant the concentration that gives 50% inhibition.

The target of one assay is T1, Cholesteryl ester transfer protein (Homo sapiens, UniProt P11597).
T1 sequence (P11597 whole entry): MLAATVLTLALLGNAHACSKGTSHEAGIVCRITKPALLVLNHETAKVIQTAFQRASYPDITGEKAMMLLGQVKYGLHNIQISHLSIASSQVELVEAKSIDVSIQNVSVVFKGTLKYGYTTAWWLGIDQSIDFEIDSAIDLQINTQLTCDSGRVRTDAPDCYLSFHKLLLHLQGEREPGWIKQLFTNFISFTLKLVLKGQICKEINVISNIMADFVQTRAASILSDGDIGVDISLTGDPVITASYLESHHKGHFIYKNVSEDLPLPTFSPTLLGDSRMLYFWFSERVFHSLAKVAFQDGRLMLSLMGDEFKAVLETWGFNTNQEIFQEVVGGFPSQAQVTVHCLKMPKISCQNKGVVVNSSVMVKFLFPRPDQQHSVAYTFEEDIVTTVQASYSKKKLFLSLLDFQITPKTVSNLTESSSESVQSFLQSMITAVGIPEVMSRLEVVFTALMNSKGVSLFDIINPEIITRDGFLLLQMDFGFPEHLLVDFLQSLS
The experiment in a line: Inhibition of recombinant human CETP-mediated transfer of [3H]CE from HDL to LDL.
On to `OC(CN(Cc1ccccc1)c1cccc(F)c1)C(F)(F)F` (stereo not drawn), for which the IC50 is over 100 µM.
In the case of `OC(CN(Cc1cccc(C(F)(F)F)c1)c1cccc(F)c1)C(F)(F)F` (stereo not drawn), the IC50 amounted to 40 µM.
As to `OC(CN(Cc1ccc(OC(F)(F)F)cc1)c1cccc(Oc2ccccc2)c1)C(F)(F)F` (stereo not drawn), the IC50 came to 4 µM.
Regarding `OC(CN(Cc1ccccc1C(F)(F)F)c1cccc(F)c1)C(F)(F)F` (stereo not drawn), the IC50 was over 100 µM.
Turning to `Cc1cccc(CN(CC(O)C(F)(F)F)c2cccc(F)c2)c1` (stereo not drawn), the IC50 is over 100 µM.
Still for that read-out and setting: under `OC(CN(Cc1cccc(C(F)(F)F)c1)c1ccccc1)C(F)(F)F` (stereo not drawn) stands 15 µM.
Consider `COc1cc(N(Cc2cccc(SC(F)(F)F)c2)C[C@@H](O)C(F)(F)F)cc(OC)c1OC`, for which the IC50 came to 5 µM.

The next assay addresses T1, Cholesteryl ester transfer protein. The assay is described as follows: Tested for inhibiting CETP-mediated transfer of [3H]-CE from HDL to LDL in vitro under buffered assay conditions in human serum. It counts as cell-free.
In the case of `OC(CN(Cc1cccc(C(F)(F)F)c1)c1cccc(F)c1)C(F)(F)F` (stereo not drawn), the IC50 was over 200 µM.
